Experimental data taken from patent US11154551B2, “HDAC1,2 inhibitors and methods of using the same” (UNIVERSITY OF UTAH RESEARCH FOUNDATION, priority 2014, dated 2021).
“Also recorded” adds a separate entry of the source.

What was measured:
[1] = tested on: SupB15 (Ph+PreB-ALL) cells; assay: γH2AX immunofluorescence; type: cell-based, human; details: 2 μM, 48 hours
Description: SupB15 cells were treated with 2 μM ACY1035, ACY1071, ACY957, or solvent (DMSO) for 48 hours. (A) Immunofluorescence with γH2AX was performed on treated SupB15 cells. The number of γH2AX foci was counted in around 100 cells for each treatment and classified into cells with no foci, 1-5, 6-10, and greater than 10 foci. (B) SupB15 cells treated with DMSO or ACY1035 for 48 hours were tested via neutral comet assay to measure the amount of double-strand breaks (DSBs), indicated by the tail.
BCR-ABL promotes DNA repair to prevent DNA damage accumulation in Philadelphia chromosome-positive (Ph+) leukemia cells. To examine the effect of various HDAC1,2-selective inhibitors on DNA repair and DNA damage response in Pre-B-ALL cells that express BCR-ABL, SupB15 (Ph+PreB-ALL) cells were treated with 2 μM ACY1035 or 2 μM ACY1071 or 2 μM ACY957 for 48 hours.

[2] = tested on: Hdac1,2; assay: in vitro enzyme assays, IC50 determination (FIG. 17A); type: biochemical
Description: (§1) (A). For IC50 determination, recombinant HDAC enzymes were treated with HDAC1,2 or HDAC3 inhibitors in in vitro HDAC assays. (B). Western blots for H3K23ac using extracts from Pre-B-ALL SupB15 cells treated with increasing dose of HDAC1,2 inhibitor (ACY1035). (C). Hdac1^FI/FI, 2^FI/FI cells were infected with Ad-Cre virus to delete HDAC1 and HDAC2 (HDAC1,2 null) or uninfected (WT). (D). Hdac3^FI/FI cells were either uninfected (WT) or infected with Ad-Cre virus to delete Hdac3. HDAC3-null cells were treated with DMSO or the HDAC1,2 selective inhibitor.
We have determined 2 μM (FIG. 17B) as the minimum dose for the ACY compounds, respectively, that when added to cells increased H3K23ac (a mark targeted by Hdac1,2 but not Hdac3).

[3] = tested on: SUDHL4 and Karpas-422 cells; assay: γH2AX foci formation by immunofluorescence; type: cell-based, human; details: 48 h; 2 μM ACY-957, 0.5 μM DZNEP, 0.5 μM GSK126
Description: (§2) The percentage of cells with 6 or greater γH2AX foci were counted in three independent experiments and at least 100 cells were counted in each experiment. […] Histones were purified using trichloroacetic acid extraction protocol (see Example 1). Western blot analysis was done with anti-γH2AX and histone H2AX served as the loading control. […] Following DMSO or ACY957 treatment, cells were exposed to a 5Gy dose of ionizing radiation and allowed to recover for 30 minutes prior to chromatin extraction. Western blot analysis was done with anti-γH2AX where total histone H2AX served as a loading control. (D): Karpas-422 cells were micro-irradiated with laser and allowed to recover for 15 minutes before fixation and immunofluorescence staining with anti-γH2AX, anti-HDAC1 and anti-HDAC2 antibodies was done.
Immunofluorescence. Cells were fixed in either 10% formalin or methanol-acetone (1:1) for 10 min at −20*C. The cells were then permeabilized with 0.5% Triton-X-100 in PBS for 5 min at room temperature (RT), blocked in 10% normal goat serum (Sigma) for 30 min and stained with primary antibody for 1 h at RT. Cells were incubated with secondary antibody (anti-mouse or anti-rabbit IgG, Alexa Fluor 488/546) at a 1:600 dilution for 45 min at RT, and counterstained with Hoechst 33342 (Sigma) at 1:1000 dilution to visualize the nuclei. Images were captured using Zeiss Axioskop mot plus microscope with a 40× lens and analyzed using the AxioVision software.

[4] = tested on: SUDHL4 cells; assay: propidium-iodide / BrdU-PI cell cycle analysis; type: cell-based, human; details: for progression through the cell cycle: 24 h; for progression through the cell cycle / cell cycle / G1 arrest and sub-G1: 2 μM ACY-957, 0.5 μM DZNEP, 0.5 μM GSK126; for cell cycle / G1 arrest and sub-G1: 72 h
Description: (§3) (B): Quantitation of the cell cycle data in (A), compiled from three independent analyses. The graphs plotted the average percentage of cells in each phase of the cell cycle. […] (C): FACS analysis following BrdU-PI staining of Karpas-422 and SUDHL4 cells was performed following a 48 h or 72 h treatment with ACY-957.
(§4) (B): Quantitation of the cell cycle analysis performed in (A). Data from three independent cell cycle analyses were compiled and average percentage cells with standard errors were shown in this panel.
(§5) Propidium-iodide Cell Cycle Analysis.
(§6) Since these DLBCL cells expressed a hyperactive form of EZH2, pharmacological inhibition of EZH2 activity was considered a therapeutic strategy. […] GSK126 was a S-adenosyl-methionine-competitive inhibitor of EZH2 methyltransferase activity, and DZNep was a S-adenosylhomocysteine hydrolase inhibitor that disrupted the components of the PRC2 complex, thereby causing reduced chromatin-associated EZH2 levels.

[5] = tested on: Karpas-422 cells; assay: propidium-iodide / BrdU-PI cell cycle analysis; type: cell-based, human; details: for progression through the cell cycle: 24 h; for progression through the cell cycle / cell cycle / sub-G1 (dead cells): 2 μM ACY-957, 0.5 μM DZNEP, 0.5 μM GSK126
Description: as §3
Cell cycle analysis of propidium-iodide stained cells was performed with fixed cells. […] (C): FACS analysis following BrdU-PI staining of Karpas-422 and SUDHL4 cells was performed following a treatment with 2 μM ACY-957, 50 nM doxorubicin or both for 48 h.
as §4, §5, §6
To test this possibility, cell cycle analysis following treatment of Karpas-422 with ACY-957, doxorubicin, or ACY-957 in combination with doxorubicin was performed.

[6] = tested on: Karpas-422 and SUDHL4 cells; assay: Western blot of chromatin extracts for H3K27ac and H3K27me3; type: cell-based, human; details: 48 h, chromatin extracts
Description: Western blot analysis was done with anti-H3K27ac, H3K27me3 or EZH2 and histone H3 served as a loading control.
Following DMSO or ACY-957 treatment, cells were exposed to a 5Gy dose of ionizing radiation and allowed to recover for 30 minutes prior to chromatin extraction. Western blots were performed with anti-H3K27ac or anti-H3K27me3 with histone H3 serving as a loading control. (B-E): Karpas-422, SUDHL4, WSU-DLCL2 and HeLa cells were laser micro-irradiated and allowed to recover for 15 minutes before fixation and immunofluorescence staining with anti-γH2AX and anti-H3K27me3. Subsequently, the percentage of cells with H3K27me3 lines that co-localized with γH2AX were counted. Merge is the overlay of γH2AX and H3K27me3 pictures. (F-I): At least 100 cells with γH2AX lines were counted in each experiment. The quantitation shown was the average calculated from independent experiments+/−standard error. Quantitation from five, seven, five and six independent experiments performed in Karpas-422, SUDHL4, WSU-DLCL2 and HeLa cells, respectively, was used in the graph shown in this figure. (J): Karpas-422 cells were micro-irradiated with a laser and allowed to recover for 15 minutes before fixation and immunofluorescence staining was performed with anti-γH2AX and anti-H3K27ac.
Protein Preparation and Western Blot Analysis.
The histone H3K27 residue was subjected to reversible acetylation and methylation. […] We also treated cells with the second EZH2 inhibitor, GSK126 alone, or combined with ACY-957 (ACY-957+GSK126). […] Cells were treated for 48 h prior to preparing chromatin extracts for Western analysis using antibodies recognizing H3K27ac or H3K27me3.
We first examined whether inhibiting HDAC1,2 activity induced any change in global H3K27ac or H3K27me3 on chromatin following DNA damage and during DNA repair. SUDHL4 or Karpas-422 cells with or without exposure to ionizing radiation (IR) were initially treated with DMSO or ACY-957 for 48 hr. Chromatin extracts were prepared from these cells following a 30 min recovery period (the repair phase) and changes in histone modifications were examined by Western blotting.

[7] = tested on: SUDHL4 and Karpas-422 cells; assay: Western blot of γH2AX on chromatin, with or without ionizing radiation; type: cell-based, human; details: 48 hr, Western
Description: as §2

[8] = tested on: Karpas-422 cells; details: publically available RNA seq data set of GSK126 treated cells; cited from earlier work
[9] = tested on: Hdac1,2 or Hdac3 knockout cell lines; assay: Western blot of H4K5ac in conditional Hdac1,2 or Hdac3 knockout cells; type: cell-based, mouse
Description: as §1, with “For” for “(A). For”, “Hdac3.” for “Hdac3. HDAC3-null cells were treated with DMSO or the HDAC1,2 selective inhibitor.”

[10] = tested on: Karpas-422 and SUDHL4 cells; assay: Western blot of histone acetylation marks in whole cell lysates; details: 2 μM, 24 hours, vs DMSO
Description: Compounds were diluted in DMSO to 50 fold the final concentration and a ten point three fold dilution series was made. The compounds were diluted in assay buffer (50 mM HEPES, pH 7.4, 100 mM KCl, 0.001% Tween-20, 0.05% BSA, 20 μM tris(2-carboxyethyl)phosphine) to 6 fold their final concentration. The HDAC enzymes (purchased from BPS Biosciences) were diluted to 1.5 fold their final concentration in assay buffer. The tripeptide substrate (synthesized in house) and trypsin at 0.05 μM final concentration were diluted in assay buffer at 6 fold their final concentration. Five μl compounds and 20 μl of enzyme were added to wells of a black, opaque 384 well plate in duplicate. Enzyme and compound were incubated together at room temperature for 10 minutes. Five μl of substrate was added to each well, the plate was shaken for 60 seconds and placed into a Victor 2 microtiter plate reader. The development of fluorescence was monitored for 60 min and the linear rate of the reaction was calculated. The IC50 was determined using Graph Pad Prism by a four parameter curve fit.

Compound: Nc1ccc(-c2ccncc2)cc1NC(=O)c1ccc2c(c1)cc(C1CC1)n2CCN1CCOCC1 [ACY-1071, N-(2-amino-5-(pyridin-4-yl)phenyl)-2-cyclopropyl-1-(2-morpholinoethyl)-1H-indole-5-carboxamide]
- DNA damage, quantitation of γH2AX foci [1]: statistically significant increase in DNA damage
- inhibition of Hdac1,2 activities compared to Hdac3 (IC50 values) [2]: very selectively

Compound: Nc1nccc2c1ncn2C1C=C(CO)C(O)C1O (stereo not shown) [DZNep, reference compound]
- cells with γH2AX foci [3]: significant increase in the number of cells with greater than six γH2AX foci
- progression through the cell cycle [4]: did not affect their progression through the cell cycle
- cell cycle / G1 arrest and sub-G1 [4]: modest increase in dead/sub-G1 SUDHL4 cells
- progression through the cell cycle [5]: did not affect their progression through the cell cycle
- cell cycle / sub-G1 (dead cells) ([5]; 48 h): modest increase in the number of dead Karpas-422 cells
- cell cycle / sub-G1 (dead cells) ([5]; 72 h): larger increase in the number of dead Karpas-422 cells
- global H3K27me3 levels [6]: without reducing global H3K27me3 levels
- chromatin associated γH2AX [7]: greater increase in γH2AX levels on chromatin compared to GSK126

Compound: CC[C@H](C)n1cc(C)c2c(C(=O)NCc3c(C)cc(C)[nH]c3=O)cc(-c3ccc(N4CCNCC4)nc3)cc21 [GSK126, reference compound]
- cells with γH2AX foci [3]: slight increase in γH2AX foci
- progression through the cell cycle [4]: did not affect their progression through the cell cycle
- cell cycle / G1 arrest ([4]; 48 h, 2 μM ACY-957, 0.5 μM GSK126): did not cause any change in the progression
- cell cycle / G1 arrest and sub-G1 [4]: did not result in any defect in the cell cycle progression and/or survival
- incubation required to decrease the viability [5]: 7 days
- progression through the cell cycle [5]: did not affect their progression through the cell cycle
- cell cycle / sub-G1 (dead cells) ([5]; 48 h): did not cause any change in the progression
- cell cycle / sub-G1 (dead cells) ([5]; 72 h): did not result in any defect in the cell cycle progression and/or survival
- global H3K27me3 levels [6]: decrease in global H3K27me3 levels; also recorded: significant decrease in H3K27me3
- BLIMP1 expression increase [8]: 2.4 fold

Compound: Nc1ccccc1NC(=O)c1ccc(CNC(=O)OCc2cccnc2)cc1 [MS275, reference compound]
- H4K5ac compared with deletion of Hdac1,2 [9]: greater increase in H4K5ac than the deletion of just Hdac1,2

Compound: O=C(CCCCCCC(=O)Nc1ccccc1)NO [SAHA, Vorinostat, reference compound]
- H3K23ac levels [10]: increase in H3K23ac
